The source of these data is patent US20250042918A1, “COMPOUNDS” (Fundación Del Sector Públlco Estatal Centro Nacional De …, priority 2021, published 2025).

Structures are written as SMILES.

What all share (type): cell-based
One test has as its system Jeko-1. The experiment in a line: In vitro potency against leukemia cell lines (CellTiter Glo). The settings on record: Homo sapiens, 72 hours, read-out: absolute IC50 JeKo-1. Here is the method:
(§1) To prepare the complete medium FBS and appropriate additives were added according to the information sheet provided by the vendor and mixed gently. The cell name and complete medium and passage number marked on the flask were checked, and the culture medium removed and discarded using a vacuum pump. […] 3.0 ml of Trypsin-EDTA solution was added to the flask and the cells observed under an inverted microscope until cell layer is dispersed. 8.0 ml of complete growth medium was added and the cells aspirated by gently pipetting. The cell suspension was transferred to a centrifuge tube and centrifuged at 800-1000 rpm for 3-5 minutes. The supernatant was discarded using a vacuum pump, and an appropriate volume of complete medium added. The cell pellet was suspended by gently pipetting, and the cell numbers counted with Vi-cell XR and the cells adjusted to appropriate density. 100 μL of cell suspension to 96-well opaque-walled clear bottom plates was added according to the planned plate layout and the plates placed in the CO2 incubator overnight.
(§2) c. […] Meanwhile the day 0 plate was measured by Cell TiterGlo as listed below.
(§3) d. Cells were incubated with the compounds for 72 h at 5% CO2, 37° C.
(§4) The plate and its contents were equilibrated to room temperature for approximately 30 minutes, after which 100 μL of CellTiter-Glo reagent was added to the assay plate by Multidrop Combi instrument and the contents mixed for 10 minutes on an orbital shaker to induce cell lysis. The plate was allowed to incubate at room temperature for 10 minutes to stabilize luminescent signal and the clear bottom pasted with white back seal and the luminescence recorded with Enspire with the settings: Luminescence, measurement time 0.1 ms.
(§5) In all cases, the incubation time was 72 hours and the cell lines were grown as a suspension. The seeding density was […] in a 96 well plate.
A general note: In ATP-based viability assays light output follows the ATP content of the culture.

The test system of the next test is Kasumi-3. The test is described as above. The settings on record: 72 hours, read-out: absolute IC50 Kasumi-3. Here is the method: as §1, §2, §3, §4, §5
The next test relates to MV-4-11. The description is as above. The settings on record: Homo sapiens, MV4-11; 72 hours; read-out: absolute IC50 MV-4-11. Here is the method:
as §1, §2, §3, §4, §5

For another test, the system named is OCI-M1. The test is described as above. The following applies: 72 hours, read-out: absolute IC50 OCI-M1. As for the experimental part: as §1, §2, §3, §4, §5
For another test, the system named is Molm-13. Described as above. The settings on record: Homo sapiens, 72 hours, read-out: absolute IC50 Molm-13. As for the experimental part: as §1, §2, §3, §4, §5
In the next test the test system is HL-60. Described as above. The following applies: Homo sapiens, 72 hours, read-out: absolute IC50 HL-60. As for the experimental part: as §1, §2, §3, §4, §5
The subject of the next test is KG-1. The test is described as above. The following applies: Homo sapiens, 72 hours, read-out: absolute IC50 KG-1. Here is the method: as §1, §2, §3, §4, §5
Another test deals with HCC1143. As to the kind of experiment: In vitro potency against breast cancer cell lines (CellTiter Glo). The settings on record: Homo sapiens, HCC1143, 72 h; read-out: absolute IC50 HCC1143. Here is the method:
as §1, §2, §3
(§6) The CellTiter-Glo buffer was thawed and equilibrated to room temperature prior to use. The lyophilized CellTiter-Glo substrate was equilibrated to room temperature prior to use. The appropriate volume of CellTiter-Glo buffer was transferred into the amber bottle containing CellTiter-Glo substrate to reconstitute the lyophilized enzyme/substrate mixture, thereby forming the CellTiter-Glo reagent. Mixing was carried out by gently vortexing, swirling or by inverting the contents to obtain a homogeneous solution, the CellTiter-Glo substrate going into solution easily in less than one minute.
as §4

The subject of another test is BT-474. The description is as above. The following applies: Homo sapiens, BT-474, 72 h; read-out: absolute IC50 BT-474. As for the experimental part: as §1, §2, §3, §6, §4
Another test concerns HCC1954. The description is as above. The settings on record: Homo sapiens, HCC1954, 72 h; read-out: absolute IC50 HCC1954. Here is the method:
as §1, §2, §3, §6, §4

The test system of the next test is T-47D. The description is as above. The settings on record: Homo sapiens, T47D, 72 h; read-out: absolute IC50 T-47D. Here is the method:
as §1, §2, §3, §6, §4

A further test relates to HCC38. The description is as above. The following applies: Homo sapiens, HCC38, 72 h; read-out: absolute IC50 HCC38. Here is the method: as §1, §2, §3, §6, §4
Another test deals with MDA-MB-361. The test is described as above. The following applies: Homo sapiens, MDA-MB-361, 72 h; read-out: absolute IC50 MDA-MB-361. Here is the method: as §1, §2, §3, §6, §4

In general, IC50 refers to the concentration that inhibits the measured activity by half. Take `Cn1c(=O)n(-c2ccc(C(C)(C)C#N)cc2)c2c3cc(-c4cnc5ccccc5c4)ccc3ncc21` [Dactolisib, dactolisib]: the IC50 with Jeko-1 worked out at 67.8 nM; in the test with Kasumi-3, 105 nM; with MV-4-11 it was 36.5 nM; in the test on OCI-M1, 125 nM; in the test with Molm-13, 44.3 nM; in the test on HL-60, 430 nM. For the same compound, the 50% inhibitory concentration (IC50) is 90 nM in the test on KG-1; 145 nM in the test with HCC1143; 114 nM with BT-474; 14.5 nM with HCC1954; 56.5 nM in the test on T-47D; 66.4 nM with HCC38. Also, in the test on MDA-MB-361, the IC50 is 30.1 nM.
